According to US20150224164A1, “TREATMENT OF AUTISM SPECTRUM DISORDERS USING GLYCYL-L-2-METHYLPROLYL-L-GLUMATIC ACID” (Neuren Pharmaceuticals Limited, priority 2013, published 2015):
Where a SMILES comes first, the peptide text is derived from it.

Assays:
[1] = Pharmacokinetic studies, plasma half-life; assay type: in vivo; details: rat
Procedure: The ability of the rats to remember or to relearn the original platform location was tested four weeks after original training. This means that residual drug would have been washed out for a minimum of 7 days in the case of the 3-week pumps, and 21 days in the case of the 1-week pumps. The retention testing procedure was identical to that of acquisition. Pharmacokinetic studies indicate that the plasma concentration of subcutaneously administered G-2-MePE rose to a peak and then declined with an approximately first order kinetic pattern, with a plasma half-life (t ½) of between about 30 and 60 minutes. Thus, by the time the retention study was performed, at least 7 days after removal of the G-2-MePE containing minipumps, nearly all of the G-2-MePE had been cleared from the animals' circulation.

[2] = Pharmacokinetics after intravenous bolus injection; assay type: in vivo, rat
Procedure: Adult male Wistar rats weighing between 180 and 240 g were used to determine the pharmacokinetics of GPE and G2MePE. To facilitate intravenous bolus injections and blood sampling, all rats were surgically implanted with an indwelling jugular venous cannula under halothane anesthesia three days before the experiment. Groups of six rats were given a single intravenous bolus injection of either 30 mg/kg GPE or 10 mg/kg G2MePE dissolved in 0.1M succinate buffer (pH 6.5). Blood samples (about 220 μl each) were collected into heparinized tubes containing Sigma protease inhibitor cocktail for mammalian tissues at 10 and 0 min before injection of either GPE or G2MePE, and 1, 2, 4, 8, 16, 32, 64 and 128 min after injection of either GPE or G2MePE. The samples were centrifuged at 3000 g for 15 min at 4° C. and the plasma removed and stored at −80° C. until extraction and assay by either radioimmunoassay (“RIA”) or reverse phase HPLC. The RIA and HPLC methods used were conventional.
The k and half-life (t1/2) were calculated from the slope of the linear regression line in the elimination phase of the semi-logarithmic plot of plasma concentration versus time as: Log C=−kt/2.3+log C0. Results were expressed as mean±standard error.

With C[C@@]1(C(=O)N[C@@H](CCC(=O)O)C(=O)O)CCCN1C(=O)CN [Example G-2-MePE, Glycyl-L-2-methylprolyl-L-glutamic acid] (HELM PEPTIDE1{G.[C[C@@]1(C(=O)[*:2])CCCN1[*:1]].E}$$$$V2.0) the half-life ([1]; in vivo, read-out: plasma half-life in vivo) was ~30 min, the half-life ([1]; sc, subcutaneously administered, read-out: plasma half-life (t 1/2)) was 30 to 60 min and the “maximal plasma concentration relative to GPE” value ([2]; G-2-MePE 10 mg/kg vs GPE 30 mg/kg i.v.) was “about 4.8 times”. For the same molecule, the “t1/2 relative to GPE” value ([2]; i.v.) was “over 4 times”, the half-life ([2]; male, Wistar, rat, plasma, iv, single i.v. bolus, GPE 30 mg/kg, G-2-MePE 10 mg/kg) was 20.7 ± 0.35 min and the clearance ([2]; male, Wistar, rat, plasma, iv, single i.v. bolus, GPE 30 mg/kg, G-2-MePE 10 mg/kg, read-out: estimated clearance from plasma (converted)) was 0.502 mL/min. It also gave a first order rate constant ([2]; single i.v. bolus, GPE 30 mg/kg, G-2-MePE 10 mg/kg) of 0.033 ± 0.001 min⁻¹ and a peak plasma concentration ([2]; single i.v. bolus, GPE 30 mg/kg, G-2-MePE 10 mg/kg, mean±standard error) of 191 ± 16.1 µg/mL.
